Measured values published in article PMC5075052, “Modulation of the Substitution Pattern of 5-Aryl-2-Aminoimidazoles Allows Fine-Tuning of Their Antibiofilm Activity Spectrum and Toxicity” (Antimicrobial Agents and Chemotherapy, 2016).
Like-named read-outs stand apart in the source and are kept apart here.

Legend:
[1] = system: E. coli TG1 + P. aeruginosa PA14; experiment: Mixed-species E. coli-P. aeruginosa biofilm assay (peg, crystal violet); assay type: cell-based, Escherichia coli + Pseudomonas aeruginosa
Procedure: Overnight cultures of E. coli TG1 and P. aeruginosa PA14 were diluted 1/100 in the same vial of TSB diluted 1/20 to form a mixed-culture suspension. Next, 2-fold serial dilutions of the compounds (dissolved in 100% DMSO or ethanol) in 100 μl liquid broth (TSB diluted 1/20) per well were prepared in the microtiter plate of the Calgary biofilm device (Nunc no. 269789) in duplicate or triplicate with a maximum concentration of 1,600 μM and a minimum concentration of 0.8 μM. One hundred microliters of the mixed-culture suspension was added to each well of the microtiter plate, resulting in a total volume of 200 μl medium per well (final concentration range of compounds, 800 μM [2% DMSO or ethanol] to 0.4 μM [0.001% DMSO or ethanol]). The pegged lid was placed on the microtiter plate, and the plate was incubated for 72 h at 37°C, which allowed biofilm formation on the pegs (Nunc no. 269789) of the Calgary biofilm device. After 72 h, the biofilm was colored with crystal violet as described above ([74]). The OD570 (biofilm cells) and OD600 (planktonic cells) were measured, and the BIC50 and the IC50, respectively, were calculated.

P. aeruginosa PA14 = experiment: Monospecies bacterial biofilm inhibition, static peg assay; assay type: cell-based, Pseudomonas aeruginosa; conditions: Pseudomonas aeruginosa
Procedure: (§1) A static peg assay, described previously ([27], [74]), was used for bacterial biofilm formation. The Calgary biofilm device consists of a platform carrying 96 polystyrene pegs (Nunc no. 445497) that fits as a microtiter plate lid, with 1 peg hanging into each microtiter plate well (Nunc no. 269789). Twofold serial dilutions of the compounds (dissolved in 100% dimethyl sulfoxide [DMSO] or ethanol) in 100 μl liquid broth (TSB diluted 1/20) per well were prepared in the microtiter plate in duplicate or triplicate with a maximum concentration of 1,600 μM and a minimum concentration of 0.8 μM. Subsequently, an overnight culture of S. Typhimurium ATCC 14028, P. aeruginosa PA14, E. coli TG1, S. epidermidis, S. aureus SH1000, or S. aureus ATCC 6538 (all grown in LB) was diluted 1:100 into TSB diluted 1/20 (or TSB for S. epidermidis, S. aureus SH1000, and S. aureus ATCC 6538), whereas overnight cultures of S. liquefaciens MG44 and B. cepacia LMG1222T were diluted 1:50 into TSB diluted 1/20. P. gingivalis ATCC 33277 cultures were diluted in TSB diluted 1/20 to have a final concentration of 1 × 10^8 cells/ml. Next, 100 μl was added to each well of the microtiter plate, resulting in a total volume of 200 μl medium per well (final concentration range of compounds, 800 μM [2% DMSO or ethanol] to 0.4 μM [0.001% DMSO or ethanol]). In the next step, the pegged lid was placed on the microtiter plate and the plate was incubated for 24 h or 48 h at 25°C or 37°C without shaking. At 37°C, the plates were placed in a sealed container with wet towels on the bottom to prevent evaporation of the growth medium. Biofilms of P. gingivalis ATCC 33277 were grown anaerobically at 37°C for 72 h. During this incubation period, biofilms were formed on the surface of the pegs. After incubation, the optical density at 600 nm (OD600) for the planktonic cells in the microtiter plate was measured using a Synergy MX multimode reader (BioTek, Winooski, VT). This gives a first indication of the effect of the compounds on planktonic growth. For quantification of biofilm formation, the pegs were washed once in 200 μl PBS. The remaining attached bacteria were stained for 30 min with 200 μl 0.1% (wt/vol) crystal violet in an isopropanol-methanol-PBS solution (1:1:18, vol/vol). Excess stain was rinsed off by placing the pegs in a 96-well plate filled with 200 μl distilled water per well. After air drying of the pegs (30 min), the dye bound to the adherent biofilm was extracted with 30% glacial acetic acid (200 μl per well of a 96-well plate). The optical density at 570 nm (OD570) of each well was measured using a Synergy MX multimode reader (BioTek, Winooski, VT). The concentration of each compound needed to inhibit biofilm formation by 50% (BIC50) and the concentration of each compound needed to inhibit planktonic growth by 50% (IC50) were determined from the concentration gradient by using nonlinear curve fitting (GraphPad Prism software, version 5; GraphPad Software, Inc., La Jolla, CA). In the same assay, the effect on planktonic growth was evaluated. The activity was considered biofilm specific if the BIC50 was at least two times lower than the IC50. Data represent the means from at least 3 technical repeats with the corresponding 95% confidence intervals (provided in the supplemental material).

E. coli TG1 = experiment: as above; assay type: cell-based, Escherichia coli; conditions: Escherichia coli
Procedure: as §1

C. albicans SC5314 = experiment: Inhibition of C. albicans biofilms, CellTiter-Blue quantification; assay type: cell-based, Candida albicans; conditions: Candida albicans; C. albicans SC5314, 37°C, CTB method; read-out: BIC50 (μM) for C. albicans SC5314 (37°C)
Procedure: The potential of the compounds to prevent C. albicans SC5314 biofilm formation was assessed using the CellTiter-Blue (CTB) quantification method ([75]). […]. Twofold serial dilutions of the compounds (dissolved in 100% DMSO or ethanol) in 100 μl RPMI 1640 medium per well were prepared in a round-bottom polystyrene 96-well microtiter plate (TPP; Trasadingen, Switzerland) in duplicate or triplicate with a maximum concentration of 1,600 μM and a minimum concentration of 0.8 μM. One hundred microliters of the cell suspension was added to each well of the microtiter plate, resulting in a total volume of 200 μl medium per well (final concentration range of compounds, 800 μM [2% DMSO or ethanol] to 0.4 μM [0.001% DMSO or ethanol]). After 16 h of static incubation at 37°C, the biofilms were washed and quantified by the CTB method as described previously ([73]).

S. aureus ATCC 6538 = experiment: Monospecies bacterial biofilm inhibition, static peg assay (Calgary device, crystal violet; planktonic OD600); assay type: cell-based, Staphylococcus aureus; conditions: Staphylococcus aureus, ATCC6538, S. aureus ATCC 6538, 37°C
Procedure: as §1

`CCCCCCCCn1c(-c2ccc(Cl)c(Cl)c2)cnc1NC1CCCC1` [Compound 8h] was tested, and the IC50 ([1]; mixed E. coli TG1 + P. aeruginosa PA14, 37°C, read-out: IC50 (planktonic growth)) was greater than 400 µM, the IC50 ([1]; mixed E. coli TG1 + P. aeruginosa PA14 biofilm, 37°C, read-out: BIC50) was greater than 400 µM and the IC50 (P. aeruginosa PA14; PA14, P. aeruginosa PA14, 25°C, read-out: BIC50) was greater than 400 µM. The IC50 (P. aeruginosa PA14; PA14, P. aeruginosa PA14, 25°C, read-out: IC50 (planktonic growth)) was greater than 400 µM, the IC50 (P. aeruginosa PA14; PA14, P. aeruginosa PA14, 37°C, read-out: BIC50) was greater than 400 µM and the IC50 (P. aeruginosa PA14; PA14, P. aeruginosa PA14, 37°C, read-out: IC50 (planktonic growth)) was greater than 400 µM. It also gave an IC50 (E. coli TG1; TG1, E. coli TG1, 25°C, read-out: BIC50) greater than 400 µM, an IC50 (E. coli TG1; TG1, E. coli TG1, 25°C, read-out: IC50 (planktonic growth)) greater than 400 µM and an IC50 (E. coli TG1; TG1, E. coli TG1, 37°C, read-out: BIC50) greater than 400 µM. For the same compound, the IC50 (E. coli TG1; TG1, E. coli TG1, 37°C, read-out: IC50 (planktonic growth)) was greater than 400 µM, the IC50 (C. albicans SC5314) was greater than 100 µM and the IC50 (S. aureus ATCC 6538; planktonic OD600, read-out: IC50 (concentration needed to inhibit planktonic growth by 50%)) was 19.5 µM. The IC50 (S. aureus ATCC 6538; read-out: BIC50 (concentration needed to inhibit biofilm formation by 50%)) was 3.8 µM.
